Data taken from US10301664B2, “Repurposing non-antimicrobial drugs and clinical molecules to treat bacterial infections” (Purdue Research Foundation, priority 2015, dated 2019).
≈ marks a conversion by molar mass, not a printed value. Like-named read-outs stand apart in the source and are kept apart here.

What was measured:
E.. coli O157:H7 = experiment: MIC against G-ve with and without colistin: E. coli O157:H7; format: cell-based
[1] = system: mitochondrial protein synthesis in J774A.1 cells; experiment: Mitochondrial biogenesis in-cell ELISA (COX-I / SDH-A); format: cell-based; settings: J774A.1 cells treated for three days
Text: Due to concern about the possible mitochondrial toxicities associated with many antibacterial protein synthesis inhibitors such as linezolid and chloramphenicol, we tested the effect of Auranofin and Ebselen on mitochondrial protein synthesis directly within the mammalian cells.

[2] = system: MRSA (23) clinical isolates; experiment: MIC against Gram +ve clinical isolates: MRSA; format: cell-based, S. aureus; settings: for MIC50: MRSA (23)
[3] = system: Colistin resistant clinical isolates of P. aeruginosa; experiment: MIC against G-ve with and without colistin: colistin resistant P. aeruginosa; format: cell-based; settings: without colistin
[4] = system: VISA and VRSA (14) clinical isolates; experiment: MIC against Gram +ve clinical isolates: VISA and VRSA; format: cell-based, S. aureus; settings: Staphylococcus aureus
S. Typhimurium = experiment: MIC against G-ve with and without colistin: S. Typhimurium; format: cell-based
[5] = cited from earlier work
[6] = system: VRE (14) clinical isolates; experiment: MIC against Gram +ve clinical isolates: VRE; format: cell-based, enterococcus
K. pneumonia = experiment: MIC against G-ve with and without colistin: K. pneumonia; format: cell-based; settings: without colistin
P. aeruginosa = experiment: MIC against G-ve with and without colistin: P. aeruginosa; format: cell-based; settings: without colistin
A. baumannii = experiment: MIC against G-ve with and without colistin: A. baumannii; format: cell-based
E. cloacae ATCC BAA-1143 = experiment: Library hits: MIC against E. cloacae; format: cell-based
[7] = system: K. pneumoniae ATCC BAA-1705; experiment: Library hits: MIC against K. pneumoniae; format: cell-based
[8] = in vivo

Compound: O=c1c2ccccc2[se]n1-c1ccccc1 [Ebselen]
- MIC, colistin (+) (E.. coli O157:H7; E. coli O157:H7, with sub-inhibitory colistin 0.0625 μg/ml): 0.125 µg/mL (≈ 0.456 µM)
- MIC, colistin (−) (E.. coli O157:H7; E. coli O157:H7, without colistin): 32 µg/mL (≈ 117 µM)
- inhibition of mitobiogenesis [1]: less than 10%
- MIC50 ([2]; second column per drug): 0.25 µg/mL (≈ 0.912 µM)
- MIC90 ([2]; Staphylococcus aureus, MRSA, read-out: MIC90 (MICs at which 90% of MRSA isolates were inhibited)): 0.25 µg/mL (≈ 0.912 µM)
- MIC50 ([2]; Staphylococcus aureus, read-out: MIC50): 0.25 µg/mL (≈ 0.912 µM)
- MIC, colistin (−) [3]: >256 µg/mL
- MIC50 [4]: 0.125 µg/mL (≈ 0.456 µM)
- MIC50 ([4]; read-out: MIC50): 0.25 µg/mL (≈ 0.912 µM)
- MIC, colistin (+) (S. Typhimurium; with sub-inhibitory colistin 0.25 μg/ml): 0.0625 µg/mL (≈ 0.228 µM)
- MIC, colistin (−) (S. Typhimurium; without colistin): 32 µg/mL (≈ 117 µM)
- increase in selenium concentration in the blood ([5]; 30 mg/kg dose): 0.84±0.1 mg/L^−1
- plasma concentration ([5]; 30 mg/kg dose): 2910 ng/mL
- clinically achievable blood concentration ([5]; in vivo): 2.91 µg/mL
- MIC50 ([6]; Enterococcus, read-out: MIC50): 0.5 µg/mL (≈ 1.82 µM)
- MIC50 ([6]; second column per drug): 0.5 µg/mL (≈ 1.82 µM)
- MIC, colistin (−) (K. pneumonia): 64 µg/mL (≈ 233 µM)
- MIC, colistin (−) (P. aeruginosa): >256 µg/mL
- MIC, colistin (+) (A. baumannii; with sub-inhibitory colistin 0.0625 μg/ml): 0.25 µg/mL (≈ 0.912 µM)
- MIC, colistin (−) (A. baumannii; without colistin): 16 µg/mL (≈ 58.4 µM)

Compound: O=c1[nH]c(=O)n([C@H]2C[C@H](O)[C@@H](CO)O2)cc1F [FdUrd, 5-fluoro-2′-deoxyuridine]
- MIC/MBC (E. cloacae ATCC BAA-1143): >16 µM
- MIC/MBC [7]: 8 µM (≈ 1.97 µg/mL)
- achieved plasma concentration after a therapeutic dose relative to required MIC90 against MRSA [8]: more than a thousand-folds higher
